Measurements published in PubChem BioAssay (NCI).
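Five compound concentrations were applied to cells in 96-well plates for 48 hours; endpoints were derived by simple linear interpolation of the resulting dose-response curve. TGI marks complete inhibition of growth.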

Assays:
Assay in all cases: NCI-60 cell line screen, 48 h
NCI-H23 lung = system: NCI-H23 lung
SF-295 CNS = system: SF-295 CNS
A498 renal = system: A498 renal
SF-268 CNS = system: SF-268 CNS
UACC-257 melanoma = system: UACC-257 melanoma
CCRF-CEM leukemia = system: CCRF-CEM leukemia
MCF7 breast = system: MCF7 breast
UACC-62 melanoma = system: UACC-62 melanoma
KM12 colon = system: KM12 colon
IGROV1 ovarian = system: IGROV1 ovarian
HL-60(TB) leukemia = system: HL-60(TB) leukemia
SNB-75 CNS = system: SNB-75 CNS
MALME-3M melanoma = system: MALME-3M melanoma
MDA-MB-435 = system: MDA-MB-435
RPMI-8226 leukemia = system: RPMI-8226 leukemia
COLO 205 colon = system: COLO 205 colon
HCT-116 colon = system: HCT-116 colon
SW-620 colon = system: SW-620 colon
U251 CNS = system: U251 CNS
HCT-15 colon = system: HCT-15 colon
OVCAR-8 ovarian = system: OVCAR-8 ovarian
SK-MEL-2 melanoma = system: SK-MEL-2 melanoma
CAKI-1 renal = system: CAKI-1 renal
MOLT-4 leukemia = system: MOLT-4 leukemia
TK-10 renal = system: TK-10 renal
NCI/ADR-RES ovarian = system: NCI/ADR-RES ovarian
ACHN renal = system: ACHN renal
OVCAR-5 ovarian = system: OVCAR-5 ovarian
PC-3 prostate = system: PC-3 prostate
NCI-H460 lung = system: NCI-H460 lung
NCI-H226 lung = system: NCI-H226 lung
SK-MEL-28 melanoma = system: SK-MEL-28 melanoma
UO-31 renal = system: UO-31 renal
OVCAR-3 ovarian = system: OVCAR-3 ovarian
BT-549 breast = system: BT-549 breast
HS 578T breast = system: HS 578T breast
MDA-MB-231 breast = system: MDA-MB-231 breast
A549 NSCLC = system: A549 NSCLC
SK-OV-3 ovarian = system: SK-OV-3 ovarian
HT29 colon = system: HT29 colon
SK-MEL-5 melanoma = system: SK-MEL-5 melanoma
HCC-2998 colon = system: HCC-2998 colon
SNB-19 CNS = system: SNB-19 CNS
SF-539 CNS = system: SF-539 CNS
K-562 leukemia = system: K-562 leukemia
NCI-H522 lung = system: NCI-H522 lung
EKVX NSCLC = system: EKVX NSCLC
HOP-92 NSCLC = system: HOP-92 NSCLC
786-0 renal = system: 786-0 renal
OVCAR-4 ovarian = system: OVCAR-4 ovarian
M14 melanoma = system: M14 melanoma
LOX IMVI melanoma = system: LOX IMVI melanoma
SR leukemia = system: SR leukemia
SN12C renal = system: SN12C renal
T-47D breast = system: T-47D breast
DU-145 prostate = system: DU-145 prostate
RXF 393 renal = system: RXF 393 renal

Compound: COc1cc2c(c(OC)c1OC)C(=O)CC2N (stereo unspecified)
- TGI (NCI-H23 lung): > 100 µM
- TGI (SF-295 CNS): > 100 µM
- TGI (A498 renal): > 100 µM
- TGI (SF-268 CNS): > 100 µM
- TGI (UACC-257 melanoma): > 100 µM
- TGI (CCRF-CEM leukemia): > 100 µM
- TGI (MCF7 breast): > 100 µM
- TGI (UACC-62 melanoma): > 100 µM
- TGI (KM12 colon): > 100 µM
- TGI (IGROV1 ovarian): > 100 µM
- TGI (HL-60(TB) leukemia): > 100 µM
- TGI (SNB-75 CNS): > 100 µM
- TGI (MALME-3M melanoma): > 100 µM
- TGI (MDA-MB-435): > 100 µM
- TGI (RPMI-8226 leukemia): > 100 µM
- TGI (COLO 205 colon): > 100 µM
- TGI (HCT-116 colon): > 100 µM
- TGI (SW-620 colon): > 100 µM
- TGI (U251 CNS): > 100 µM
- TGI (HCT-15 colon): > 100 µM
- TGI (OVCAR-8 ovarian): > 100 µM
- TGI (SK-MEL-2 melanoma): > 100 µM
- TGI (CAKI-1 renal): > 100 µM
- TGI (MOLT-4 leukemia): > 100 µM
- TGI (TK-10 renal): > 100 µM
- TGI (NCI/ADR-RES ovarian): > 100 µM
- TGI (ACHN renal): > 100 µM
- TGI (OVCAR-5 ovarian): > 100 µM
- TGI (PC-3 prostate): > 100 µM
- TGI (NCI-H460 lung): > 100 µM
- TGI (NCI-H226 lung): > 100 µM
- TGI (SK-MEL-28 melanoma): > 100 µM
- TGI (UO-31 renal): > 100 µM
- TGI (OVCAR-3 ovarian): > 100 µM
- TGI (BT-549 breast): > 100 µM
- TGI (HS 578T breast): > 100 µM
- TGI (MDA-MB-231 breast): > 100 µM
- TGI (A549 NSCLC): > 100 µM
- TGI (SK-OV-3 ovarian): > 100 µM
- TGI (HT29 colon): > 100 µM
- TGI (SK-MEL-5 melanoma): > 100 µM
- TGI (HCC-2998 colon): > 100 µM
- TGI (SNB-19 CNS): > 100 µM
- TGI (SF-539 CNS): > 100 µM
- TGI (K-562 leukemia): > 100 µM
- TGI (NCI-H522 lung): > 100 µM
- TGI (EKVX NSCLC): > 100 µM
- TGI (HOP-92 NSCLC): > 100 µM
- TGI (786-0 renal): > 100 µM
- TGI (OVCAR-4 ovarian): > 100 µM
- TGI (M14 melanoma): > 100 µM
- TGI (LOX IMVI melanoma): > 100 µM

Compound: O=C(NCc1ccccc1)c1cnc(Cl)cn1
- TGI (NCI-H23 lung): 87.4 µM
- TGI (SR leukemia): 69.8 µM
- TGI (SF-295 CNS): > 100 µM
- TGI (A498 renal): > 100 µM
- TGI (SF-268 CNS): > 100 µM
- TGI (UACC-257 melanoma): > 100 µM
- TGI (CCRF-CEM leukemia): 62.6 µM
- TGI (SN12C renal): > 100 µM
- TGI (MCF7 breast): > 100 µM
- TGI (UACC-62 melanoma): > 100 µM
- TGI (KM12 colon): > 100 µM
- TGI (IGROV1 ovarian): > 100 µM
- TGI (HL-60(TB) leukemia): > 100 µM
- TGI (SNB-75 CNS): > 100 µM
- TGI (MALME-3M melanoma): > 100 µM
- TGI (MDA-MB-435): > 100 µM
- TGI (RPMI-8226 leukemia): > 100 µM
- TGI (COLO 205 colon): > 100 µM
- TGI (HCT-116 colon): > 100 µM
- TGI (SW-620 colon): > 100 µM
- TGI (U251 CNS): > 100 µM
- TGI (HCT-15 colon): 82.4 µM
- TGI (T-47D breast): > 100 µM
- TGI (OVCAR-8 ovarian): > 100 µM
- TGI (SK-MEL-2 melanoma): > 100 µM
- TGI (CAKI-1 renal): 33 µM
- TGI (MOLT-4 leukemia): > 100 µM
- TGI (TK-10 renal): > 100 µM
- TGI (NCI/ADR-RES ovarian): 44.2 µM
- TGI (ACHN renal): 44.1 µM
- TGI (NCI-H460 lung): > 100 µM
- TGI (NCI-H226 lung): > 100 µM
- TGI (SK-MEL-28 melanoma): > 100 µM
- TGI (UO-31 renal): 36.3 µM
- TGI (OVCAR-3 ovarian): > 100 µM
- TGI (DU-145 prostate): > 100 µM
- TGI (HS 578T breast): > 100 µM
- TGI (MDA-MB-231 breast): > 100 µM
- TGI (A549 NSCLC): > 100 µM
- TGI (SK-OV-3 ovarian): > 100 µM
- TGI (HT29 colon): > 100 µM
- TGI (SK-MEL-5 melanoma): > 100 µM
- TGI (RXF 393 renal): > 100 µM
- TGI (HCC-2998 colon): 43.3 µM
- TGI (SNB-19 CNS): > 100 µM
- TGI (SF-539 CNS): > 100 µM
- TGI (NCI-H522 lung): 4.35 µM
- TGI (EKVX NSCLC): > 100 µM
- TGI (HOP-92 NSCLC): 55 µM
- TGI (786-0 renal): > 100 µM
- TGI (OVCAR-4 ovarian): > 100 µM
- TGI (M14 melanoma): > 100 µM
- TGI (LOX IMVI melanoma): > 100 µM

Compound: Cc1ccc2c(O)c3c(cc2c1)C(=O)c1c2c(cc(O)c1C3=O)C1(C)OC(O2)C(O)C(N(C)C)C1O (stereo unspecified)
- TGI (A498 renal): 2.37 µM
- TGI (SF-268 CNS): 81 µM
- TGI (KM12 colon): 2.77 µM
- TGI (COLO 205 colon): 1.91 µM
- TGI (HCT-15 colon): 2.44 µM
- TGI (TK-10 renal): 3.1 µM
- TGI (NCI/ADR-RES ovarian): 2.42 µM
- TGI (ACHN renal): 1.88 µM
- TGI (OVCAR-5 ovarian): 3.73 µM
- TGI (OVCAR-3 ovarian): 1.59 µM
- TGI (DU-145 prostate): 2.23 µM
- TGI (HCC-2998 colon): 2.34 µM
- TGI (K-562 leukemia): 0.442 µM
- TGI (HOP-92 NSCLC): 2.22 µM
- TGI (786-0 renal): 1.6 µM

Compound: CC(=O)OCC(=O)[C@@]1(O)CC[C@H]2[C@@H]3CCC4=CC(=O)C=C[C@]4(C)[C@@]3(F)[C@@H](O)C[C@@]21C
- TGI (PC-3 prostate): > 100 µM
